Values joined by “and” are separate entries in the source; they are usually repeats but may differ in a detail not shown here. Identical values can stand only once.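 Five compound concentrations were applied to cells in 96-well plates for 48 hours; endpoints were derived by simple linear interpolation of the resulting dose-response curve. At the GI50, growth is halved. TGI marks complete inhibition of growth.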
Assays:
Assay in all cases: growth of human tumour cells (NCI), 48 h
HCC-2998 colon = test system: HCC-2998 colon
DU-145 prostate = test system: DU-145 prostate
BT-549 breast = test system: BT-549 breast
OVCAR-8 ovarian = test system: OVCAR-8 ovarian
RXF 393 renal = test system: RXF 393 renal
SF-539 CNS = test system: SF-539 CNS
MALME-3M melanoma = test system: MALME-3M melanoma
COLO 205 colon = test system: COLO 205 colon
SN12C renal = test system: SN12C renal
A549 NSCLC = test system: A549 NSCLC
SNB-19 CNS = test system: SNB-19 CNS
SW-620 colon = test system: SW-620 colon
SK-MEL-5 melanoma = test system: SK-MEL-5 melanoma
MOLT-4 leukemia = test system: MOLT-4 leukemia
NCI-H522 lung = test system: NCI-H522 lung
CCRF-CEM leukemia = test system: CCRF-CEM leukemia
MDA-MB-231 breast = test system: MDA-MB-231 breast
IGROV1 ovarian = test system: IGROV1 ovarian
U251 CNS = test system: U251 CNS
SF-268 CNS = test system: SF-268 CNS
SNB-75 CNS = test system: SNB-75 CNS
UACC-62 melanoma = test system: UACC-62 melanoma
NCI-H460 lung = test system: NCI-H460 lung
UO-31 renal = test system: UO-31 renal
UACC-257 melanoma = test system: UACC-257 melanoma
OVCAR-4 ovarian = test system: OVCAR-4 ovarian
HT29 colon = test system: HT29 colon
ACHN renal = test system: ACHN renal
PC-3 prostate = test system: PC-3 prostate
RPMI-8226 leukemia = test system: RPMI-8226 leukemia
SK-MEL-2 melanoma = test system: SK-MEL-2 melanoma
LOX IMVI melanoma = test system: LOX IMVI melanoma
TK-10 renal = test system: TK-10 renal
HL-60(TB) leukemia = test system: HL-60(TB) leukemia
OVCAR-3 ovarian = test system: OVCAR-3 ovarian
HOP-62 NSCLC = test system: HOP-62 NSCLC
SF-295 CNS = test system: SF-295 CNS
HS 578T breast = test system: HS 578T breast
K-562 leukemia = test system: K-562 leukemia
HCT-15 colon = test system: HCT-15 colon
HOP-92 NSCLC = test system: HOP-92 NSCLC
M14 melanoma = test system: M14 melanoma
NCI-H23 lung = test system: NCI-H23 lung
HCT-116 colon = test system: HCT-116 colon
SK-MEL-28 melanoma = test system: SK-MEL-28 melanoma
A498 renal = test system: A498 renal
MDA-MB-435 = test system: MDA-MB-435
CAKI-1 renal = test system: CAKI-1 renal
SR leukemia = test system: SR leukemia
NCI/ADR-RES ovarian = test system: NCI/ADR-RES ovarian
EKVX NSCLC = test system: EKVX NSCLC
786-0 renal = test system: 786-0 renal
MCF7 breast = test system: MCF7 breast
KM12 colon = test system: KM12 colon
T-47D breast = test system: T-47D breast
OVCAR-5 ovarian = test system: OVCAR-5 ovarian
NCI-H226 lung = test system: NCI-H226 lung
MDA-N = test system: MDA-N
SK-OV-3 ovarian = test system: SK-OV-3 ovarian

In the case of `COc1c(O)ccc(C2=Cc3ccc(O)cc3OC2)c1OC`, the TGI (HCC-2998 colon) is reported as 47100 nM, the TGI (DU-145 prostate) is reported as > 79600 nM and the TGI (BT-549 breast) is reported as > 82400 nM. The TGI (OVCAR-8 ovarian) was > 62500 nM, the TGI (RXF 393 renal) was > 63500 nM and the TGI (SF-539 CNS) was 35300 nM. For the same compound, the TGI (MALME-3M melanoma) was 65700 nM, the TGI (COLO 205 colon) was > 74000 nM and the TGI (SN12C renal) was > 96500 nM. For the same compound, the TGI (A549 NSCLC) was > 78900 nM, the TGI (SNB-19 CNS) was > 100000 nM and the TGI (SW-620 colon) was > 100000 nM. The TGI (SK-MEL-5 melanoma) was 38500 nM, the TGI (MOLT-4 leukemia) was 37000 nM and the TGI (NCI-H522 lung) was 16100 nM. For the same compound, the TGI (CCRF-CEM leukemia) was > 96700 nM, the TGI (MDA-MB-231 breast) was > 80700 nM and the TGI (IGROV1 ovarian) was > 100000 nM. For the same compound, the TGI (U251 CNS) was > 100000 nM, the TGI (SF-268 CNS) was > 100000 nM and the TGI (SNB-75 CNS) was > 58300 nM. The TGI (UACC-62 melanoma) was > 50700 nM, the TGI (NCI-H460 lung) was > 100000 nM and the TGI (UO-31 renal) was 28400 nM. The TGI (UACC-257 melanoma) was > 89700 nM, the TGI (OVCAR-4 ovarian) was > 81100 nM and the TGI (HT29 colon) was > 89500 nM. The TGI (ACHN renal) was > 63400 nM, the TGI (PC-3 prostate) was 84400 nM and the TGI (RPMI-8226 leukemia) was > 26800 nM. For the same compound, the TGI (SK-MEL-2 melanoma) was 68000 nM, the TGI (LOX IMVI melanoma) was > 100000 nM and the TGI (TK-10 renal) was > 100000 nM. It also gave a TGI (HL-60(TB) leukemia) of 10700 nM, a TGI (OVCAR-3 ovarian) of 34000 nM and a TGI (HOP-62 NSCLC) of 62400 nM. The TGI (SF-295 CNS) was > 83600 nM, the TGI (HS 578T breast) was > 95300 nM and the TGI (K-562 leukemia) was 45800 nM. For the same compound, the TGI (HCT-15 colon) was 37300 nM, the TGI (HOP-92 NSCLC) was > 74000 nM and the TGI (M14 melanoma) was 66800 nM. The TGI (NCI-H23 lung) was > 58300 nM, the TGI (HCT-116 colon) was > 61700 nM and the TGI (SK-MEL-28 melanoma) was > 94000 nM. The TGI (A498 renal) was 80800 nM, the TGI (MDA-MB-435) was > 92200 nM and the TGI (CAKI-1 renal) was 50000 nM. The TGI (SR leukemia) was 17100 nM, the TGI (NCI/ADR-RES ovarian) was > 67900 nM and the TGI (EKVX NSCLC) was > 100000 nM. The TGI (786-0 renal) was > 63500 nM, the TGI (MCF7 breast) was > 100000 nM and the TGI (KM12 colon) was 33400 nM. For the same compound, the TGI (T-47D breast) was > 82300 nM, the TGI (OVCAR-5 ovarian) was 97700 nM and the TGI (NCI-H226 lung) was > 65400 nM. The TGI (MDA-N) was 33500 nM and the TGI (SK-OV-3 ovarian) was > 80800 nM.
For `C=C1C(C(O)C[C@H](C)C2O[C@@]3(CCCCO3)CCC2C)O[C@@H]2CCC3(CCC(/C=C/[C@@H](C)C4CC(C)=CC5(O4)O[C@H](C[C@](C)(O)C(=O)O)CCC5O)O3)OC2[C@@H]1O` (stereo partly specified), the TGI (HCC-2998 colon) was 9.25 nM, the GI50 (DU-145 prostate) was 23.1 nM and the TGI (DU-145 prostate) was 137 nM and 37.7 nM. The GI50 (BT-549 breast) was 3.37 nM, the TGI (BT-549 breast) was 11.5 nM and 27.6 nM and the GI50 (OVCAR-8 ovarian) was 26.5 nM. The GI50 (RXF 393 renal) was 0.277 nM, the GI50 (SF-539 CNS) was 4.56 nM and the TGI (SF-539 CNS) was 17.5 nM and 9.41 nM. For the same compound, the GI50 (MALME-3M melanoma) was 9.97 nM, the GI50 (SN12C renal) was 20.2 nM and the GI50 (A549 NSCLC) was 47.7 nM. The TGI (A549 NSCLC) was 255 nM and 258 nM, the GI50 (SNB-19 CNS) was 4.86 nM and the TGI (SNB-19 CNS) was 15.8 nM and 15.1 nM. The GI50 (SW-620 colon) was 23.1 nM, the TGI (SW-620 colon) was 252 nM and 102 nM and the TGI (SK-MEL-5 melanoma) was 15.5 nM and 7.96 nM. For the same compound, the GI50 (MOLT-4 leukemia) was 24.1 nM, the TGI (MOLT-4 leukemia) was 61.5 nM and 53.5 nM and the GI50 (NCI-H522 lung) was 6.29 nM. For the same compound, the TGI (NCI-H522 lung) was 28.8 nM and 5.39 nM, the GI50 (CCRF-CEM leukemia) was 5.78 nM and the TGI (CCRF-CEM leukemia) was 40.9 nM and 93.1 nM. The GI50 (MDA-MB-231 breast) was 11.7 nM, the GI50 (IGROV1 ovarian) was 32.2 nM and the TGI (IGROV1 ovarian) was 137 nM and 64.1 nM. For the same compound, the GI50 (U251 CNS) was 8.08 nM, the TGI (SF-268 CNS) was 8.56 nM and the GI50 (SNB-75 CNS) was 4.7 nM. The TGI (SNB-75 CNS) was 39.5 nM and 4.2 nM, the GI50 (UACC-62 melanoma) was 4.29 nM and the TGI (UACC-62 melanoma) was 16.1 nM and 8.61 nM. The GI50 (NCI-H460 lung) was 6.31 nM, the TGI (NCI-H460 lung) was 33.2 nM and 43.7 nM and the GI50 (UO-31 renal) was 96 nM. For the same compound, the TGI (UO-31 renal) was 238 nM and 101 nM, the GI50 (UACC-257 melanoma) was 13.7 nM and the TGI (UACC-257 melanoma) was 34.2 nM and 23.3 nM. For the same compound, the GI50 (OVCAR-4 ovarian) was 23.1 nM, the TGI (OVCAR-4 ovarian) was 89.8 nM and 62.7 nM and the GI50 (HT29 colon) was 21 nM. For the same compound, the TGI (HT29 colon) was 56.1 nM and 39.6 nM, the GI50 (ACHN renal) was 25.9 nM and the TGI (ACHN renal) was 101 nM and 61.8 nM. The GI50 (PC-3 prostate) was 12.6 nM, the TGI (PC-3 prostate) was 35.2 nM and 19.1 nM and the GI50 (RPMI-8226 leukemia) was 4.22 nM. For the same compound, the TGI (RPMI-8226 leukemia) was 31.4 nM and 17.3 nM, the GI50 (SK-MEL-2 melanoma) was 3.53 nM and the TGI (SK-MEL-2 melanoma) was 11.2 nM and 8.49 nM. The GI50 (LOX IMVI melanoma) was 5.88 nM, the GI50 (TK-10 renal) was 67 nM and the TGI (TK-10 renal) was 202 nM and 36.2 nM. For the same compound, the GI50 (HL-60(TB) leukemia) was 1.62 nM, the TGI (HL-60(TB) leukemia) was 7.8 nM and 16 nM and the GI50 (OVCAR-3 ovarian) was 12.1 nM. The TGI (OVCAR-3 ovarian) was 31.6 nM and 9.27 nM, the GI50 (HOP-62 NSCLC) was 7.4 nM and 3.98 nM and the TGI (HOP-62 NSCLC) was 25.5 nM and 10.9 nM. The GI50 (SF-295 CNS) was 7.48 nM, the TGI (SF-295 CNS) was 86.7 nM and 25.9 nM and the GI50 (HS 578T breast) was 2.65 nM. The TGI (HS 578T breast) was 27.1 nM and 19 nM, the TGI (K-562 leukemia) was 163 nM and 303 nM and the GI50 (HCT-15 colon) was 46.1 nM. For the same compound, the TGI (HCT-15 colon) was 203 nM and 55 nM, the GI50 (HOP-92 NSCLC) was 13 nM and the TGI (HOP-92 NSCLC) was 38.6 nM and 9.11 nM. For the same compound, the GI50 (M14 melanoma) was 2.77 nM, the TGI (M14 melanoma) was 9.85 nM and 6.27 nM and the TGI (NCI-H23 lung) was 32.3 nM. For the same compound, the GI50 (HCT-116 colon) was 5.57 nM, the GI50 (SK-MEL-28 melanoma) was 4.33 nM and the TGI (SK-MEL-28 melanoma) was 15.1 nM and 6.35 nM. It also gave a GI50 (A498 renal) of 31.5 nM, a GI50 (MDA-MB-435) of 7.36 nM and a GI50 (CAKI-1 renal) of 16.8 nM. The TGI (CAKI-1 renal) was 52.3 nM and 40.9 nM, the GI50 (SR leukemia) was 54.1 nM and the GI50 (NCI/ADR-RES ovarian) was 111 nM. The TGI (NCI/ADR-RES ovarian) was > 1000 nM and 778 nM, the GI50 (EKVX NSCLC) was 19.2 nM and the TGI (EKVX NSCLC) was 124 nM and 17.4 nM. The GI50 (786-0 renal) was 10.8 nM, the TGI (786-0 renal) was 27.2 nM and 34.3 nM and the GI50 (MCF7 breast) was 19.9 nM. The TGI (MCF7 breast) was 44.1 nM and 20.7 nM, the GI50 (KM12 colon) was 6.28 nM and the GI50 (T-47D breast) was 13.1 nM. The TGI (T-47D breast) was 185 nM and 64.1 nM, the GI50 (OVCAR-5 ovarian) was 7.06 nM and the TGI (OVCAR-5 ovarian) was 23.9 nM and 27.5 nM. For the same compound, the TGI (NCI-H226 lung) was 8.28 nM, the GI50 (MDA-N) was 5.35 nM and the GI50 (SK-OV-3 ovarian) was 10.6 nM. The TGI (SK-OV-3 ovarian) was 42.1 nM and 34.8 nM.
